Reference: US20230070861A1, “COMPOSITIONS AND METHODS FOR TREATING HEPATITIS B” (priority 2019, published 2023)

Tested on: HBV
Assay: HBV markers in HBV-infected primary human hepatocyte (PHH) co-culture
Format: cell-based
Method: A system comprising HBV-infected primary human hepatocytes (PHHs) was established by persistent HBV infection for over 30 days in a self-assembling, primary hepatocyte co-culture system (FIG. 12A). To generate the co-cultures system, primary human hepatocytes (PHH) (BioIVT) were plated at 350 k cells per well in a Collagen-Type I coated 24-well plate (Corning, 354408), and incubated at 37° C., 5% C02 to generate an adherent cell monolayer. 4 hrs post plating, plated hepatocytes were washed with CP medium (BioIVT) to remove any unadhered cells. 3T3-J2 murine embryonic fibroblasts (Kerafast (distributed from Howard Green (Harvard), Boston) were seeded at a ratio of 95% hepatocyte:5% fibroblast per well and cultured at 37° C., 5% C02 for an additional 12 hours to form co-cultures. Culture medium was replaced every 2 days (500 μL per well) for continued maintenance. Shown in FIG. 12C are images of transduced primary hepatocytes from two human hepatocyte donors, isolated from two different human livers. They were isolated, cryopreserved, and distributed for sale for research purposes by BioIVT (Maryland, US).
On the second day, post hepatocyte co-culture formation, lentivirus was added at an MOI 500 dropwise into culture medium per well. Co-cultures were transduced for 16 hours, prior to changing media for fresh CP medium (BioIVT). Culture medium was replaced every 2 days (500 μL per well) for continued maintenance. Protein expression occurs over 7 days period in hepatic co-cultures. At day 7 post transduction, co-cultures were transfected using lipofection based reagents co-formulated with gRNA and base-editor mRNA. Cells were lysed and harvested for gDNA 48 hours post transfection. FIG. 12B provides a timeline of the in vitro transduction schedule in either hepatocyte monolayers or hepatocyte co-cultures showing representative time points. Importantly, PHH cultures not treated with polyethylene glycol (PEG) during infection tend to have very low percentages of HBV infected PHH cells.
The infected cells, as gauged by HBV markers, respond to treatment as expected. […] The amounts of extracellular HBV DNA detected in the treated PHH cultures were similar to the amount observed in negative control cell cultures.
The experiments employed the approach using the HBV-infected PHH culture system and transfection of the PHH with components (base editors) of the base editor system as depicted in FIG. 19. Primary hepatocytes (PHH) co-cultures were infected with HBV in order to test antiviral efficacy of the base editors. The base editing reagents or components (base editor mRNA and synthetic gRNA) were transfected via lipofection twice over the course of two weeks. The first transfection was performed 3 days after infection to allow for complete formation of viral covalently closed circular DNA (cccDNA) at the time of the transfection. Extracellular parameters (HBsAg, HBeAg, and HBV DNA) were monitored over the course of the experiment and intracellular parameters (HBV DNA, viral RNA, and editing) were monitored at the end of the experiment. Briefly, on Day 0, PHH were infected with HBV (MOI=500). On Day 3 after HBV infection, the cells were transfected with base editing components, e.g., a BE and gRNA, or control(s). On Day 10, PHHs were subjected to another round of transfection. At the termination of the experiment, e.g., Day 17 or longer, e.g., Day 25, the PHH were lysed and extracellular amounts of HBsAg, HBeAg and HBV DNA were assessed. Also assessed were intracellular amounts of HBV DNA, viral RNA and the efficacy of base editing by the components of the base editor system versus control(s). Transfection details: RNA format, 800 ng total RNA per well in a 24 well plate (600 ng base editor+200 ng gRNA) transfected via lipofection (lipofectamin messengerMax, Thermofisher Scientific) according to the vendor's protocol. […]

[1] = 14-day PHH co-culture experiment, FIG. 20

Row | Compound | HBV DNA [1] | HBsAg [1] | pgRNA [1] | extracellular HBV DNA (compared to untreated HBV infected control cells, by day 7 post infection, FIG. 13B) | HBV surface antigen (HBsAg) (relative to negative controls, FIG. 13C) | intracellular HBV DNA (relative to negative controls, FIG. 13D) | total HBV RNA (relative to negative controls, FIG. 13E) | pre-genomic RNA (pgRNA) (relative to negative controls, FIG. 13F)
1 | C=C1[C@H](CO)[C@@H](O)C[C@@H]1n1cnc2c(=O)[nH]c(N)nc21 [entecavir] | reduces | does not influence | does not influence |  |  |  |  | 
2 | C[C@H](Cn1cnc2c(N)ncnc21)OCP(=O)(O)O [tenofovir] |  |  |  | significantly reduced | lower levels | lower levels | lower levels | lower levels
